PubChem BioAssay (NCI)
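Five compound concentrations were applied to cells in 96-well plates for 48 hours; endpoints were derived by simple linear interpolation of the resulting dose-response curve. GI50: concentration for 50% inhibition of growth. TGI denotes the concentration required for complete inhibition of growth.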

Columns and labels:
Experiment in all cases: NCI anticancer screen, dose series, 48 h
EKVX NSCLC = test system: EKVX NSCLC
DU-145 prostate = test system: DU-145 prostate
K-562 leukemia = test system: K-562 leukemia
UACC-62 melanoma = test system: UACC-62 melanoma
HCC-2998 colon = test system: HCC-2998 colon
NCI-H522 lung = test system: NCI-H522 lung
NCI-H23 lung = test system: NCI-H23 lung
TK-10 renal = test system: TK-10 renal
SF-268 CNS = test system: SF-268 CNS
KM12 colon = test system: KM12 colon
NCI-H460 lung = test system: NCI-H460 lung
OVCAR-8 ovarian = test system: OVCAR-8 ovarian
CCRF-CEM leukemia = test system: CCRF-CEM leukemia
HL-60(TB) leukemia = test system: HL-60(TB) leukemia
NCI-H226 lung = test system: NCI-H226 lung
A549 NSCLC = test system: A549 NSCLC
NCI/ADR-RES ovarian = test system: NCI/ADR-RES ovarian
HCT-116 colon = test system: HCT-116 colon
RXF 393 renal = test system: RXF 393 renal
SW-620 colon = test system: SW-620 colon
RPMI-8226 leukemia = test system: RPMI-8226 leukemia
SF-539 CNS = test system: SF-539 CNS
SR leukemia = test system: SR leukemia
SF-295 CNS = test system: SF-295 CNS
MCF7 breast = test system: MCF7 breast
MALME-3M melanoma = test system: MALME-3M melanoma
A498 renal = test system: A498 renal
LOX IMVI melanoma = test system: LOX IMVI melanoma
SK-MEL-28 melanoma = test system: SK-MEL-28 melanoma
SK-OV-3 ovarian = test system: SK-OV-3 ovarian
OVCAR-3 ovarian = test system: OVCAR-3 ovarian
SK-MEL-5 melanoma = test system: SK-MEL-5 melanoma
SK-MEL-2 melanoma = test system: SK-MEL-2 melanoma
SN12C renal = test system: SN12C renal
MDA-MB-435 = test system: MDA-MB-435
UO-31 renal = test system: UO-31 renal
M14 melanoma = test system: M14 melanoma
786-0 renal = test system: 786-0 renal
HOP-62 NSCLC = test system: HOP-62 NSCLC
PC-3 prostate = test system: PC-3 prostate
OVCAR-5 ovarian = test system: OVCAR-5 ovarian
HS 578T breast = test system: HS 578T breast
CAKI-1 renal = test system: CAKI-1 renal
MOLT-4 leukemia = test system: MOLT-4 leukemia
UACC-257 melanoma = test system: UACC-257 melanoma
ACHN renal = test system: ACHN renal
HCT-15 colon = test system: HCT-15 colon
BT-549 breast = test system: BT-549 breast
OVCAR-4 ovarian = test system: OVCAR-4 ovarian
T-47D breast = test system: T-47D breast
HOP-92 NSCLC = test system: HOP-92 NSCLC
IGROV1 ovarian = test system: IGROV1 ovarian
COLO 205 colon = test system: COLO 205 colon
MDA-MB-231 breast = test system: MDA-MB-231 breast
U251 CNS = test system: U251 CNS
SNB-19 CNS = test system: SNB-19 CNS
SNB-75 CNS = test system: SNB-75 CNS
HT29 colon = test system: HT29 colon

`Cc1cc(C(NC(=O)CCCCCNc2cccc3c2C(=O)N(C2CCC(=O)NC2=O)C3=O)c2cccnc2)c(O)c2ncccc12` (stereo not drawn) was tested, and the GI50 (EKVX NSCLC) was 809 nM, the TGI (EKVX NSCLC) was > 22500 nM and the GI50 (DU-145 prostate) was 1920 nM. The TGI (DU-145 prostate) was > 100000 nM, the GI50 (K-562 leukemia) was 1210 nM and the TGI (K-562 leukemia) was > 100000 nM. For the same compound, the GI50 (UACC-62 melanoma) was 1810 nM, the TGI (UACC-62 melanoma) was 6350 nM and the GI50 (HCC-2998 colon) was 26.4 nM. It also gave a TGI (HCC-2998 colon) of 2450 nM, a GI50 (NCI-H522 lung) of 639 nM and a GI50 (NCI-H23 lung) of 1800 nM. For the same compound, the TGI (NCI-H23 lung) was 43800 nM, the GI50 (TK-10 renal) was 413 nM and the TGI (TK-10 renal) was > 100000 nM. For the same compound, the GI50 (SF-268 CNS) was 112 nM, the TGI (SF-268 CNS) was 18800 nM and the GI50 (KM12 colon) was 199 nM. For the same compound, the TGI (KM12 colon) was 21300 nM, the GI50 (NCI-H460 lung) was 1510 nM and the TGI (NCI-H460 lung) was 28100 nM. For the same compound, the GI50 (OVCAR-8 ovarian) was < 16.3 nM, the TGI (OVCAR-8 ovarian) was 8330 nM and the GI50 (CCRF-CEM leukemia) was < 10 nM. For the same compound, the TGI (CCRF-CEM leukemia) was > 100000 nM, the GI50 (HL-60(TB) leukemia) was < 13.4 nM and the TGI (HL-60(TB) leukemia) was 35.5 nM. It also gave a GI50 (NCI-H226 lung) of 32.4 nM, a TGI (NCI-H226 lung) of 961 nM and a GI50 (A549 NSCLC) of 734 nM. The TGI (A549 NSCLC) was 28000 nM, the GI50 (NCI/ADR-RES ovarian) was 13400 nM and the TGI (NCI/ADR-RES ovarian) was > 100000 nM. The GI50 (HCT-116 colon) was 1520 nM, the TGI (HCT-116 colon) was > 100000 nM and the GI50 (RXF 393 renal) was 221 nM. The TGI (RXF 393 renal) was 2280 nM, the GI50 (SW-620 colon) was 21 nM and the TGI (SW-620 colon) was > 100000 nM. For the same compound, the GI50 (RPMI-8226 leukemia) was 1350 nM, the TGI (RPMI-8226 leukemia) was > 100000 nM and the GI50 (SF-539 CNS) was 933 nM. For the same compound, the TGI (SF-539 CNS) was 8950 nM, the GI50 (SR leukemia) was 433 nM and the TGI (SR leukemia) was > 54200 nM. The GI50 (SF-295 CNS) was 291 nM, the TGI (SF-295 CNS) was 8140 nM and the GI50 (MCF7 breast) was 62.5 nM. For the same compound, the TGI (MCF7 breast) was 14000 nM, the GI50 (MALME-3M melanoma) was < 10 nM and the TGI (MALME-3M melanoma) was 22.4 nM. It also gave a GI50 (A498 renal) of 202 nM, a TGI (A498 renal) of 6520 nM and a GI50 (LOX IMVI melanoma) of 856 nM. For the same compound, the TGI (LOX IMVI melanoma) was 12400 nM, the GI50 (SK-MEL-28 melanoma) was 904 nM and the TGI (SK-MEL-28 melanoma) was > 74900 nM. The GI50 (SK-OV-3 ovarian) was 222 nM, the TGI (SK-OV-3 ovarian) was 3920 nM and the GI50 (OVCAR-3 ovarian) was 252 nM. The TGI (OVCAR-3 ovarian) was 15600 nM, the GI50 (SK-MEL-5 melanoma) was 52.5 nM and the TGI (SK-MEL-5 melanoma) was 999 nM. For the same compound, the GI50 (SK-MEL-2 melanoma) was 485 nM, the TGI (SK-MEL-2 melanoma) was 11400 nM and the GI50 (SN12C renal) was 50.1 nM. The GI50 (MDA-MB-435) was 2350 nM, the TGI (MDA-MB-435) was > 100000 nM and the GI50 (UO-31 renal) was 362 nM. The TGI (UO-31 renal) was 34400 nM, the GI50 (M14 melanoma) was 100 nM and the TGI (M14 melanoma) was 4990 nM. It also gave a GI50 (786-0 renal) of 164 nM, a TGI (786-0 renal) of 14700 nM and a GI50 (HOP-62 NSCLC) of 21.4 nM. It also gave a TGI (HOP-62 NSCLC) of 685 nM, a GI50 (PC-3 prostate) of 20.7 nM and a GI50 (OVCAR-5 ovarian) of 637 nM. For the same compound, the TGI (OVCAR-5 ovarian) was > 100000 nM, the GI50 (HS 578T breast) was 18.4 nM and the TGI (HS 578T breast) was 7090 nM. The GI50 (CAKI-1 renal) was 471 nM, the TGI (CAKI-1 renal) was 16700 nM and the GI50 (MOLT-4 leukemia) was < 10 nM. The TGI (MOLT-4 leukemia) was 156 nM, the GI50 (UACC-257 melanoma) was 2090 nM and the TGI (UACC-257 melanoma) was > 27600 nM. The GI50 (ACHN renal) was 3580 nM, the TGI (ACHN renal) was > 59500 nM and the GI50 (HCT-15 colon) was 228 nM. For the same compound, the TGI (HCT-15 colon) was > 100000 nM, the GI50 (BT-549 breast) was < 12.8 nM and the TGI (BT-549 breast) was 39.2 nM. For the same compound, the GI50 (OVCAR-4 ovarian) was 22.1 nM, the TGI (OVCAR-4 ovarian) was 325 nM and the GI50 (T-47D breast) was 10.3 nM. For the same compound, the TGI (T-47D breast) was 5120 nM, the GI50 (HOP-92 NSCLC) was < 12.1 nM and the TGI (HOP-92 NSCLC) was 304 nM. For the same compound, the GI50 (IGROV1 ovarian) was 27.2 nM, the TGI (IGROV1 ovarian) was 3800 nM and the GI50 (COLO 205 colon) was 28.8 nM. It also gave a TGI (COLO 205 colon) of 1670 nM, a GI50 (MDA-MB-231 breast) of 13.6 nM and a TGI (MDA-MB-231 breast) of 193 nM. The GI50 (U251 CNS) was 641 nM, the TGI (U251 CNS) was > 100000 nM and the GI50 (SNB-19 CNS) was 273 nM. For the same compound, the TGI (SNB-19 CNS) was > 100000 nM, the GI50 (SNB-75 CNS) was 20.8 nM and the TGI (SNB-75 CNS) was 5320 nM. The GI50 (HT29 colon) was 446 nM and the TGI (HT29 colon) was > 100000 nM.
